From patent US12077503B2, “Substituted cyclic amides and their use as herbicides” (FMC CORPORATION, priority 2015, dated 2024)

How the values were obtained:
Type in all cases: in vivo
[1] = test system: pigweed (Amaranthus retroflexus); assay: Test A preemergence; settings: Amaranthus retroflexus, pre-emergence, 240 h, 0 to 100 scale where 0 is no effect and 100 is complete control, read-out: Pigweed plant response rating
[2] = test system: barnyardgrass (Echinochloa crus-galli); assay: Test A preemergence; settings: Echinochloa crus-galli, pre-emergence, 240 h, 0 to 100 scale where 0 is no effect and 100 is complete control, read-out: Barnyardgrass plant response rating
How it was run: (§1)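 Ratings of 0 (no effect) to 100 (complete control) come from visual comparison with untreated controls roughly 10 d after treatment. Test chemicals, formulated in a non-phytotoxic solvent mixture with surfactant, were applied either as a preemergence directed soil spray on seeded soil or postemergence to one- to two-leaf plants 2 to 10 cm tall.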

[3] = test system: giant foxtail (Setaria faberii); assay: Test A preemergence; settings: Setaria faberi, pre-emergence, 240 h, 0 to 100 scale where 0 is no effect and 100 is complete control, read-out: Foxtail, Giant plant response rating
How it was run: as §1

[4] = test system: Kochia (Kochia scoparia); assay: Test A preemergence; settings: Bassia scoparia, pre-emergence, 240 h, 0 to 100 scale where 0 is no effect and 100 is complete control, read-out: Kochia plant response rating
How it was run: as §1

[5] = test system: ragweed (common ragweed, Ambrosia elatior); assay: Test A preemergence; settings: Ambrosia artemisiifolia, pre-emergence, 240 h, 0 to 100 scale where 0 is no effect and 100 is complete control, read-out: Ragweed plant response rating
How it was run: as §1

[6] = test system: ryegrass, Italian (Italian ryegrass, Lolium multiflorum); assay: Test A preemergence; settings: Lolium multiflorum, pre-emergence, 240 h, 0 to 100 scale where 0 is no effect and 100 is complete control, read-out: Ryegrass, Italian plant response rating
How it was run: as §1

[7] = test system: sedge, umbrella (small-flower umbrella sedge, Cyperus difformis); assay: Test B flooded paddy test; settings: Cyperus difformis, 250 g ai/ha, Flood; 0 to 100 scale where 0 is no effect and 100 is complete control; read-out: Sedge, Umbrella plant response rating
How it was run: (§2)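 Compound goes directly into floodwater once pots are flooded 3 cm above soil, targeting plants at two leaves; the water depth is then held for the test duration. Plants sit 13–15 d in a greenhouse and are rated visually, 100 denoting complete control.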

[8] = test system: barnyardgrass (Echinochloa crus-galli); assay: Test B flooded paddy test; settings: Echinochloa crus-galli, 250 g ai/ha, Flood; 0 to 100 scale where 0 is no effect and 100 is complete control; read-out: Barnyardgrass plant response rating
How it was run: as §2

[9] = test system: rice (Oryra sativa); assay: Test B flooded paddy test; settings: Oryza sativa, 250 g ai/ha, Flood; 0 to 100 scale where 0 is no effect and 100 is complete control; read-out: Rice plant response rating
How it was run: as §2

[10] = test system: ducksalad (Heteranthera limosa); assay: Test B flooded paddy test; settings: Heteranthera limosa, 250 g ai/ha, Flood; 0 to 100 scale where 0 is no effect and 100 is complete control; read-out: Ducksalad plant response rating
How it was run: as §2

[11] = test system: Galium (catchweed bedstraw, Galium aparine); assay: Test A postemergence; settings: Galium, post-emergence, 240 h, Postemergence, read-out: Galium plant response rating (0 to 100 scale)
How it was run: as §1

[12] = test system: pigweed (Amaranthus retroflexus); assay: Test A postemergence; settings: Amaranthus retroflexus, post-emergence, 240 h, Postemergence, read-out: Pigweed plant response rating (0 to 100 scale)
How it was run: as §1

[13] = test system: barnyardgrass (Echinochloa crus-galli); assay: Test A postemergence; settings: Echinochloa crus-galli, post-emergence, 240 h, Postemergence
How it was run: as §1

[14] = test system: blackgrass (Alopecurus myosuroides); assay: Test A postemergence; settings: Alopecurus myosuroides, post-emergence, 240 h, Postemergence, read-out: Blackgrass plant response rating (0 to 100 scale)
How it was run: as §1

[15] = test system: giant foxtail (Setaria faberii); assay: Test A postemergence; settings: Setaria faberi, post-emergence, 240 h, Postemergence, read-out: Foxtail, Giant plant response rating (0 to 100 scale)
How it was run: as §1

[16] = test system: Kochia (Kochia scoparia); assay: Test A postemergence; settings: Bassia scoparia, post-emergence, 240 h, Postemergence, read-out: Kochia plant response rating (0 to 100 scale)
How it was run: as §1

[17] = test system: ragweed (common ragweed, Ambrosia elatior); assay: Test A postemergence; settings: Ambrosia artemisiifolia, post-emergence, 240 h, Postemergence, read-out: Ragweed plant response rating (0 to 100 scale)
How it was run: as §1

[18] = test system: ryegrass, Italian (Italian ryegrass, Lolium multiflorum); assay: Test A postemergence; settings: Lolium multiflorum, post-emergence, 240 h, Postemergence, read-out: Ryegrass, Italian plant response rating (0 to 100 scale)
How it was run: as §1

[19] = test system: wheat (Triticum aestivum); assay: Test A postemergence; settings: Triticum aestivum, post-emergence, 240 h, Postemergence, read-out: Wheat plant response rating (0 to 100 scale)
How it was run: as §1

[20] = test system: corn (Zea mays); assay: Test A postemergence; settings: Zea mays, post-emergence, 240 h, Postemergence, read-out: Corn plant response rating (0 to 100 scale)
How it was run: as §1

[21] = 125 g ai/ha, preemergence, visual injury rating, approximately 10 d
[22] = 125 g ai/ha, visual rating about 10 d after treatment
[23] = 31 g ai/ha, 0 is no effect, 100 is complete control

Compound: CN1C[C@H](c2ccccc2)[C@@H](C(=O)Nc2cccc(F)c2F)C1=O [Compound 1282]
- pest or weed control at 31 g/ha ([1]; 31 g ai/ha, Preemergence): 60%
- pest or weed control at 125 g/ha [1, 21]: 80%
- pest or weed control at 31 g/ha ([2]; 31 g ai/ha, Preemergence): 100%
- pest or weed control at 125 g/ha [2, 21]: 100%
- pest or weed control at 31 g/ha ([3]; 31 g ai/ha, Preemergence): 100%
- pest or weed control at 125 g/ha [3, 21]: 100%
- pest or weed control at 31 g/ha ([4]; 31 g ai/ha, Preemergence): 30%
- pest or weed control at 125 g/ha [4, 21]: 70%
- pest or weed control at 31 g/ha ([5]; 31 g ai/ha, Preemergence): 0%
- pest or weed control at 125 g/ha [5, 21]: 90%
- pest or weed control at 31 g/ha ([6]; 31 g ai/ha, Preemergence): 30%
- pest or weed control at 125 g/ha [6, 21]: 70%
- pest or weed control at 250 g/ha [7]: 0%
- pest or weed control at 250 g/ha [8]: 90%
- pest or weed control at 250 g/ha [9]: 30%
- pest or weed control at 250 g/ha [10]: 100%
- pest or weed control at 125 g/ha [11, 22]: 70%
- pest or weed control at 31 g/ha [11, 23]: 40%
- pest or weed control at 125 g/ha [12, 22]: 20%
- pest or weed control at 31 g/ha [12, 23]: 0%
- pest or weed control at 125 g/ha ([13]; 125 g ai/ha, visual rating about 10 d after treatment, read-out: Barnyardgrass plant response rating (0 to 100 scale, 0 no effect, 100 complete control)): 100%
- pest or weed control at 31 g/ha ([13]; 31 g ai/ha, 0 is no effect, 100 is complete control, read-out: Barnyardgrass plant response rating (0 to 100 scale)): 90%
- pest or weed control at 125 g/ha [14, 22]: 0%
- pest or weed control at 31 g/ha [14, 23]: 0%
- pest or weed control at 125 g/ha [15, 22]: 80%
- pest or weed control at 31 g/ha [15, 23]: 80%
- pest or weed control at 125 g/ha [16, 22]: 60%
- pest or weed control at 31 g/ha [16, 23]: 0%
- pest or weed control at 125 g/ha [17, 22]: 40%
- pest or weed control at 31 g/ha [17, 23]: 0%
- pest or weed control at 125 g/ha [18, 22]: 40%
- pest or weed control at 31 g/ha [18, 23]: 0%
- plant injury at 125 g/ha [19, 22]: 50%
- plant injury at 31 g/ha [19, 23]: 0%
- plant injury at 125 g/ha [20, 22]: 30%
- plant injury at 31 g/ha [20, 23]: 0%
